Assays:
Plasmodium berghei ANKA = assay: Inhibition of EEF development in Huh-7 human hepatoma cells infected with sporozoites (immunofluorescence microscopy); assay type: cell-based; conditions: compound at 8 μM, 1.6 μM, 320 nM, 64 nM, 1 h before infection with 10,000 sporozoites per well
Text: To model this infection, the inventors have developed an assay monitoring infection and maturation of Plasmodium berghei ANKA, a mouse-pathogenic close relative of the human-pathogenic Plasmodium falciparum strain, in cultured human hepatoma cells. Huh human hepatoma cells, were cultivated in RPMI (Gibco/Invitrogen) medium containing 10% FBS, 1% non-essential amino acid solution (Gibco/Invitrogen), 1% penicillin/streptomycin solution (Gibco/Invitrogen), 1% glutamine (Gibco/Invitrogen) and 1% Hepes pH 8 (Gibco/Invitrogen). 4000-6000 cells per well were seeded in a volume of 100 μl/well. Sporozoites were obtained from Anopheles stephensi mosquitoes infected with P. berghei ANKA or P. yoelii. Salivary glands were dissected and collected in RPMI medium (GIBCO) on ice. Collected tissues were gently ground in the medium to release sporozoites. Tissue fragments were removed by centrifugation at 40×g for 3 min, and sporozoites were collected from the supernatant. Blt-1, Blt-2, and Blt-4 were purchased from ChemBridge Corporation (San Diego, USA). Ezetimibe (for chemical structure see FIG. 6 and structure (XXVI)) was derived from powdered Ezeterol tablets (Essex Pharma, UK). Each compound was dissolved in DMSO at a final concentration of 50 mM. 48 hours after seeding of 6000 Huh-7 cells per well, growth medium was replaced by fresh complete culture medium, containing the compounds in 4 different concentrations, generated by dilution series of the compound stock solutions in complete growth medium: 8 μM; 1.6 μM; 320 nM; 64 nM. […] Cells were imaged using a fully automated fluorescence microscope from MDC (Molecular Devices Corporation, CA, USA). […] Numerical readouts comprised of cell proliferation as measured by the number of nuclei per imaged field (Hoechst staining), cell confluency as measured by the percentage of the imaged field covered by cells (actin/Phalloidin staining), and number of EEFs per imaged field. […] Objects in a size range of 16-150 pixels were quantified. […]

P. berghei ANKA = assay: Liver infection in mice, parasite 18S RNA by Real-Time PCR; assay type: in vivo, Plasmodium berghei; conditions: C57Bl/6 mice
Method: Ezeterol tablets were used to prepare a 0.3 mg/ml solution of Ezetimibe in water. Experimental C5781/6 mice were treated by oral gavage with 200 μl of Ezetimibe solution (3 mg/kg) 2 hours prior to infection with sporozoites. To control mice, 200 μl of water were administered by oral gavage. Infection with Plasmodium berghei was performed by i.v. injection of 30 000 sporozoites (see FIG. 5). For BLT-1 treatment of C57Bl/6 mice (male, 6-8 weeks old), intra-peritoneal injections of 50 mg/kg of BLT-1 in DMSO were carried out prior to infection. Control mice were treated with DMSO only. Two hours later, mice were infected by intravenous injection with 3×10^4 P. berghei sporozoites (see FIG. 12).
Mice were sacrificed 40-42 hours after infection and their livers collected. Livers were placed in 4 ml cold lysis buffer (4 M guanidine thio-cyanate, 25 mM sodium citrate, pH 7.0 and 0.5% sarcosyl) and homogenised on ice with a tissue tearer. 1 ml aliquots of liver homogenate were kept at −80° C. until RNA extraction. Total RNA was extracted from 50 μl of liver homogenate with Qiagen's RNeasy RNA extraction kit following the instructions of the manufacturer. […]
P. berghei ANKA load and ScarB1 expression in the liver was quantified by Real-Time PCR using the SYBR Green Mix (Applied Biosystems) and primers designed for the 18S RNA of the parasite and primers for ScarB1. […]

P. berghei = assay: EEF development in mouse primary hepatocytes infected with P. berghei sporozoites; assay type: cell-based, Plasmodium berghei; conditions: 10 μM; full 24 hours of infection, first 2 hours only, or 2 hours after infection until 24 hours
Method: C57B1/6 freshly isolated mouse primary hepatocytes (1×10^5 cells per well) were seeded in 700 μl of Williams E medium supplemented with 1× glutamax (Gibco/Invitrogen), 4% fetal calf serum (Gibco/Invitrogen) and 1% penicillin/streptomycin (Gibco/Invitrogen) in 24 well plates incubated at 37° C. 5% CO2. After two days cells were treated with 10 μM BLT-1 for different time points: for the full 24 hours of infection with P. berghei (5×10^5 sporozoites), only during the first 2 hours of infection, or for the time of 2 hours after infection until evaluation at 24 hours. (see FIG. 14)

P. yoelii = P. yoelii EEF development in Hepa 1-6 cells; assay type: cell-based, Plasmodium yoelii; conditions: 10 μM; full 24 hours of infection, first 2 hours only, or 2 hours after infection until 24 hours
Method: Hepa 1-6 cells were cultured in complete DMEM medium (Gibco/Invitrogen) supplemented with 10% fetal calf serum (Gibco/Invitrogen) and 1% penicillin/streptomycin (Gibco/Invitrogen) incubated at 37° C. and 5% CO2. Sporozoites were obtained from Anopheles stephensi mosquitoes infected with P. berghei ANKA or P. yoelii. Salivary glands were dissected and collected in RPMI medium (GIBCO) on ice. Collected tissues were gently ground in the medium to release sporozoites. Tissue fragments were removed by centrifugation at 40×g for 3 min, and sporozoites were collected from the supernatant. Cells were treated with 10 μM BLT-1 for different time points: for the full 24 hours of infection with P. yoelii (1×10^5 sporozoites), only during the first 2 hours of infection, or for the time of 2 hours after infection until evaluation of infection at 24 hours (see FIG. 15).

With `CCCCCCC1CCC/C1=N\NC(N)=S` (stereo not shown) [BLT-1] the “EEF (Exo-Erythrocytic Forms) development, EEF number” value (“EEF … EEF number” below) (Plasmodium berghei ANKA) was “Inhibition of EEF (Exo-Erythrocytic Forms) development”, the “infection rate for liver in mice” value (P. berghei ANKA; 50 mg/kg intra-peritoneal in DMSO two hours before i.v. infection with 3×10^4 P. berghei sporozoites) was “reduces infection rate for liver” and the “EEF development in Mouse Primary Hepatocytes” value (P. berghei) was “Inhibition of EEF development”. For the same compound, the “P. Yoelii EEF development in Hepa 1-6 cells” value (P. yoelii) was “Inhibition of P. Yoelii EEF development”.

In the case of `COc1ccccc1NC(=O)Nc1ccc2ccccc2c1` [BLT-4], the “EEF … EEF number” value (Plasmodium berghei ANKA) is reported as “Inhibition of EEF development”.

For `O=C1[C@H](CC[C@H](O)c2ccc(F)cc2)[C@@H](c2ccc(O)cc2)N1c1ccc(F)cc1` [Ezetimibe], the “EEF … EEF number” value (Plasmodium berghei ANKA) was “Inhibition of EEF development” and the “infection rate for liver in mice” value (P. berghei ANKA; 3 mg/kg oral gavage 2 hours prior to i.v. infection with 30 000 sporozoites, livers 40-42 hours after infection) was “reduces infection rate for liver”.

Source: patent US8507546B2, “Use of inhibitors of scavenger receptor class proteins for the treatment of infectious diseases” (Instituto de Medicina Molecular, Faculdade de Medicina da …, priority 2006, dated 2013)
